# Laboratory results reported in patent publication CN116323625A, “杂环类衍生物、其制备方法及其医药上的用途” (Zhejiang Hisun Pharmaceutical Co Ltd, priority 2021, dated 2023).
# Biological target: T1, KRAS G12D:RAF1 protein interaction [KRAS G12D:RAF1蛋白相互作用] (Homo sapiens, UniProt P01116, G12D)
# T1 construct: purchased Cisbio 63ADK000CB21PEG
# Experiment: Inhibition of the KRAS G12D:RAF1 protein interaction (TR-FRET binding assay)
# Conditions: in vitro, 10000nM-0.1nM, 4 h at room temperature
# T1 sequence (P01116 1-188 isoform P01116-2 G12D): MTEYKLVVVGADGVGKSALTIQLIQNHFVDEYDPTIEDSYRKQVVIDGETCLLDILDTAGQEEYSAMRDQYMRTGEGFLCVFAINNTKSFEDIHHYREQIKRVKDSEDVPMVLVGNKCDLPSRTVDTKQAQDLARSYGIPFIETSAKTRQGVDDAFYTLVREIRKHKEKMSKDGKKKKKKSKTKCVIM
row,Compound,IC50
1,"OCCN1C2CCC1CN(c1nc(OC[C@@]34CCCN3C[C@H](F)C4)nc3c(F)c(-c4cc(O)cc5cccc(F)c45)ncc13)C2 [实施例2, 5-fluoro-4-(8-fluoro-2-(((2R,7aS)-2-fluorotetrahydro-1H-pyrrolizin-7a(5H)-yl)methoxy)-4-(8-(2-hydroxyethyl)-3,8-diazabicyclo[3.2.1]octan-3-yl)pyrido[4,3-d]pyrimidin-7-yl)naphthalen-2-ol]",189 nM
2,"O=C([C@H]1CCCN1)N1C2CCC1CN(c1nc(OC[C@@]34CCCN3C[C@H](F)C4)nc3c(F)c(-c4cc(O)cc5cccc(F)c45)ncc13)C2 [实施例3, 4-(8-(D-prolyl)-3,8-diazabicyclo[3.2.1]octan-3-yl)-8-fluoro-7-(8-fluoro-3-hydroxynaphthalen-1-yl)-2-(((2R,7aS)-2-fluorotetrahydro-1H-pyrrolizin-7a(5H)-yl)methoxy)pyrido[4,3-d]pyrimidine]",114 nM
